PMC12040169 (PLOS Biology, 2025)

Experiment: in vitro
Conditions: human, hela cells, % viability

In order of rising viability at 28.5 h, 10 µM:
1. COc1ccc(-c2cc(Nc3ccc(OC)cc3OC)ncn2)cc1 [CBK090763]  46.7%
2. CCN1CCC2(CC1)CN(CC(N)=O)c1ccccc12 [CBK126798]  80.4%
3. Cn1nnnc1-c1cccc(NC(=O)c2ccc(Oc3ccccc3)cc2)c1 [CBK297872]  81.6%
4. CN(C)c1cccc(COc2cncc(N3CCNCC3)n2)c1 [CBK200004]  82.1%
5. O=C(NC1CC1)c1cnc2ccc(F)cc2c1O [CBK307629]  82.4%
6. O=C(Nc1cccnc1)c1cnc2cc(Cl)ccc2c1O [CBK107353]  82.6%
7. CN1C(=O)c2ccccc2C(=O)[C@@]2(C)CN(C3CCCC3)C[C@@H]12 [CBK283476]  83.3%
8. Cc1nn(-c2cccc(C(=O)NC3CCCOC3)c2)c(C)c1Cl (stereo not drawn) [CBK282512]  83.6%
9. O=C(Nc1nc2ccccc2s1)c1cnccn1 [CBK058664]  83.9%
10. CC(=O)N1CCC(NC[C@H]2C[C@@H]3CCN2C[C@@H]3c2cc(C3CCCC3)nc(C)n2)CC1 [CBK289129]  84.3%
11. Cc1ccn2cc(-c3ccc4c(c3)CC(C)N4S(C)(=O)=O)nc2c1 (stereo not drawn) [CBK285183]  84.6%
12. CN(C)C(=O)c1cc(-c2cccc(N(C)C)c2)cnc1NCC1CC1 [CBK076333]  85.1%
13. COc1ccc(C2CNC(=O)C2)cc1OC1CCCC1 (stereo not drawn) [CBK011603]  86.5%
14. O=C(O)c1cccc(NC(=O)c2ccc3c(c2)C(=O)N(Cc2cccnc2)C3=O)c1 [CBK265523]  88.5%
15. O=C(Nc1cc(Cl)ccc1C(=O)NC1CCC(O)CC1)c1cccs1 (stereo not drawn) [CBK306186]  89.2%
16. Cc1cc2oc(C(=O)Nc3nc(-c4ccc(S(=O)(=O)N5CCCC5)cc4)cs3)c(C)c2cc1C [CBK266309]  89.5%
17. O=C(O)c1ccc(-n2ccnc2)c(C#Cc2ccccc2)c1 [CBK284502]  89.5%
18. Cc1nn(Cc2ccc(Cl)cc2)c(C)c1NC(=O)CSc1nc(-c2ccc(F)cc2)cc(C(F)(F)F)n1 [CBK266160]  89.7%
19. NCc1oc(-c2ccccc2)cc1C(=O)O [CBK265941C]  89.8%
20. O=C1CC(N2CCN(Cc3ccc4c(c3)OCO4)CC2)C(=O)N1c1ccc(Br)cc1 (stereo not drawn) [CBK074544]  89.9%
21. Cc1nc2ccc(C(=O)NCC3CCCN(C(C)C)C3)cc2[nH]1 (stereo not drawn) [CBK282475]  90%
22. C=CCOC(=O)C1=C(C)OC(N)=C(C(=O)OCc2ccccc2)C12C(=O)Nc1ccccc12 (stereo not drawn) [CBK262527]  90.9%
23. CN(CC(=O)Nc1nnc[nH]1)S(=O)(=O)c1ccc(Br)cc1 [CBK268618]  91.1%
24. O=C(NCC1COc2ccccc2O1)NC(=O)C1CCNCC1 (stereo not drawn) [CBK051096]  91.6%
25. COc1ccc(CCNC(=O)c2cccc(-c3ccc(OC4CCNCC4)cc3)n2)cc1OC [CBK126548T]  91.7%
26. O=C(O)CNC(=O)CN1C(=O)c2cc(Cl)c(Cl)cc2C1=O [CBK287156]  92.3%
27. COc1ccc(CCCC(=O)Nc2c(C)nn(C)c2N2CCNCC2)cc1OC [CBK050252T]  93%
28. Cc1nc2c3c(sc2c(=O)[nH]1)NC(=O)CC3c1ccccc1 (stereo not drawn) [CBK288094]  93.1%
29. O=C(Nc1cccc(N2CCNCC2)c1)C1CCCO1 (stereo not drawn) [CBK004768T]  93.4%
30. O=C(c1ccncc1)N1CCc2cc(-c3csc(C4CC4)n3)ccc21 [CBK288618]  94.5%
31. Cc1nc(C)c(C(=O)NCCN2CC(C)CC(C)C2)s1 (stereo not drawn) [CBK283071]  95.1%
32. CCCC/C=C/c1cnc(N)c(N[C@H](C)c2ccccc2)n1 [CBK064148]  95.1%
33. NS(=O)(=O)c1ccc(C(=O)N2CCC3(CCN(C(=O)c4ccoc4)C3)C2)cc1 (stereo not drawn) [CBK131736]  95.2%
34. O=C(Cn1cccc2cc(C3CCNCC3)nc1-2)N1CCCCCC1 [CBK284679]  95.6%
35. c1cc2c(cc1CN1CCC(Oc3cncc(OCCN4CCOCC4)n3)C1)OCO2 (stereo not drawn) [CBK084487]  96.7%
36. Cc1cc(C(=O)NCC[S+](C)[O-])c(-n2cccc2)s1 (stereo not drawn) [CBK283305]  96.7%
37. COc1ccc(NC(=O)Nc2ccc3nc(C)c(C)nc3c2)cc1 [CBK265120]  97.4%
38. CC1=NN(c2ccc(S(N)(=O)=O)cc2)C(=O)/C1=C\c1ccc(-c2ccc(S(N)(=O)=O)cc2)o1 [CBK263476]  97.4%
39. COc1ccc(-n2nnc(C(=O)N3CCCCC3C(N)=O)c2C)cc1 (stereo not drawn) [CBK305551]  98.1%
40. C[C@H](Nc1cncc(-c2ccc(F)cc2F)n1)c1ccccc1 [CBK065684]  98.9%
41. O=C(c1ccc(-c2cnc3[nH]c(=O)n(CCc4cccnc4)c3n2)cc1)N1CCOCC1 [CBK064334]  99.1%
42. COc1cc(NC(=O)CC2NC3CCCCC3NC2=O)cc(OC)c1 (stereo not drawn) [CBK266597]  99.1%
43. Cc1ccc(N(CC(O)CN2C(=O)NC(C)(C)C2=O)S(=O)(=O)c2ccccc2)cc1 (stereo not drawn) [CBK263580]  99.2%
44. OCCNc1nc(O)cc(C(F)(F)F)n1 [CBK001804]  99.5%
45. COc1ccc(CC(=O)N2CCC(c3cccc(Cc4cccc(F)c4)n3)CC2)cc1 [CBK286504]  100%
46. O=C(C1=C(O)C(=O)N(Cc2cccnc2)C1c1ccc(Cl)cc1Cl)c1ccccc1 (stereo not drawn) [CBK263367]  101%
47. COc1ccc2c(CC(=O)Nc3sccc3C(N)=O)coc2c1 [CBK295137]  101%
48. O=C(O)c1ccc(NC(=O)c2cccc(NC(=O)c3cccc4ccccc34)c2)cc1 [CBK299823]  101%
49. O=C(NCc1ccc2c(c1)CCN2C(=O)c1ccncc1)c1cccc(F)c1 [CBK288586]  102%
50. COc1ccccc1CNS(=O)(=O)c1ccccc1[N+](=O)[O-] [CBK261699]  102%
51. Cc1cc(C)n(-c2nc3ccccc3nc2N2CCN(S(=O)(=O)c3ccc4ccccc4c3)CC2)n1 [CBK269134]  103%
52. CC(=O)c1nnn(-c2cc(Cl)ccc2Cl)c1C [CBK085973]  104%
53. COc1ccc(Cl)cc1NC(=O)CN(c1ccccc1)S(=O)(=O)c1ccc(Cl)cc1 [CBK265261]  105%
54. CC1CCC(C(C)C)C(OCC(O)CN2CCN(C)CC2)C1 (stereo not drawn) [CBK278213C]  105%
55. COc1ccccc1-c1cn2ccnc2c(NCCc2ccccn2)n1 [CBK037980]  107%
56. COc1ccc(C)cc1NC(=O)c1cnc2n(c1=O)CCS2 [CBK287383]  108%
57. CCc1cc(C(=O)NC(c2ccc(F)cc2)c2nccn2C)n(C)n1 (stereo not drawn) [CBK281434]  108%
58. Cc1cn(C[C@H](NC(=O)c2cccc(F)c2)C(=O)O)c(=O)[nH]c1=O [CBK289667]  109%
59. CC(C)C(=O)N1CC2(CCN(Cc3nc4ccccc4[nH]3)CC2)c2ccccc21 [CBK126719]  110%
60. CC(C)(C)C(=O)NCCn1nc(-c2cccs2)oc1=O [CBK282344]  110%
61. Cc1nc(C)n(CC2CCCCN2Cc2cn3ccccc3n2)n1 (stereo not drawn) [CBK304008]  111%
62. CN(C)CCCOC(=O)c1cccnc1Cl [CBK027436]  111%
63. CC(=O)NC(Cc1c[nH]c2ccccc12)/C(C)=N/O (stereo not drawn) [CBK022711]  120%
